The test system of the assay is PAN02 pancreatic tumors. The assay can be described thus: PAN02 pancreatic tumor model, ER-886046 with gemcitabine and radiation. The conditions noted are these: gemcitabine single 40 mg/kg + RT single 6 Gy on day 27; first study (FIG. 10). It counts as in vivo, mice. On the procedure: FIG. 10. […] Antitumor activity of gemcitabine plus local radiation (RT) administered to PAN02 pancreatic tumors in C57BL/6 mice with or without ER-886046. Gemcitabine and RT dosing: a single 40 mg/kg dose of gemcitabine and a single 6 Gy dose of RT, was administered on day 27 post tumor cell injection. ER-8806046 was administered daily in an amount of 150 mg/kg from day 27 post tumor cell injection until the end of the study.
FIG. 11A to FIG. 11B. Additional experiments with combination therapy of ER-886046 and anti-metabolite chemotherapy with radiation compared to anti-metabolite chemotherapy with radiation alone. Panel shown in FIG. 11A) Gemcitabine and RT dosing: a single 40 mg/kg dose of gemcitabine and a single 6 Gy dose of RT, was administered on day 19 post tumor cell injection. ER-8806046 was administered daily in an amount of 150 mg/kg from day 19 post tumor cell injection until the end of the study. Panel shown in FIG. 11B) Gemcitabine and RT dosing: a single 40 mg/kg dose of gemcitabine and a single 6 Gy dose of RT, was administered on day 12 post tumor cell injection. ER-8806046 was administered daily in an amount of 150 mg/kg from day 12 post tumor cell injection until the end of the study. Average tumor sizes of mouse pancreatic PAN02 tumor-bearing mice that received vehicles, ER-886046, gemcitabine (gem) plus radiation (RT), ER-886046 plus RT, or ER-886046 plus gemcitabine and RT at indicated dosages and schedules. A and B represent each independent study. N=8-10 per group. NS, not significant; *, p<0.05; **, p<0.01; ***, p<0.001; and ****, p<0.0001, two-way ANOVA test.
Animal studies; In vitro cultured cancer cells were harvested and suspended in 100 μl of cold HBSS buffer at cell concentrations of 1.0×10^6 cells/ml (CT-26 cells) or of 1.0×10^7 cells/ml (PAN02 cells) and subcutaneously (sc) injected into the mice using a 26 g syringe on day 0. At the dates as indicated in the figures, the mice were randomized based on the tumor size followed by treatments with local radiation alone, gemcitabine alone (intravenous administration), ER-886046 alone (oral administration), or combinations of these treatments. […] The tumor sizes were measured twice a week by a digital caliber (Mitutoyo Corp), and the volume was calculated using the formula (1×w^2)/2=mm^3, where 1 and w refer to the larger and smaller perpendicular dimensions collected at each measurement. Graphs of group tumor sizes (mean±SEM) versus time were plotted using software GraphPad Prism 6 (Lake Forest, Calif.). Two way ANOVA was used for statistical calculation among the groups. N=8-10 in each treatment group.

Where a name gives a salt, the structure may show the parent alone.

Regarding `Nc1ccn([C@@H]2O[C@H](CO)[C@@H](O)C2(F)F)c(=O)n1` [gemcitabine, Gemcitabine hydrochloride, reference compound], the “tumor growth delay activity” value is listed as “weak but statistically significant tumor growth delay activity”.

These data come from patent US11707448B2, “Combination therapies for the treatment of cancer” (Eisai R&D Management Co., Ltd., priority 2014, dated 2023).
